Data from publication PMC6624297 (Cell Death & Disease, 2019).

What was measured:
human TS (hTS) = molecular target: T1, human TS (hTS) (Homo sapiens, UniProt P04818); experiment: Thymidylate synthase (TS) spectrophotometric assay; format: biochemical; conditions: averages from triplicate assays
T1 construct: purchased ProSpec-Tany
Procedure: Recombinant human thymidylate synthase purchased from ProSpec-Tany Company. TS was assayed spectrophotometrically at 30 °C and pH 7.4 in a mixture containing 0.1 M 2-mercaptoethanol, 0.0003 M (6R,S)-tetrahydrofolate, 0.012 M formaldehyde, 0.02 M MgCl2, 0.001 M dUMP, 0.04 M Tris–HCl, 30 nM hTS, and 0.00075 M NaEDTA. […] The reaction was initiated by the addition of an amount of enzyme yielding a change in absorbance at 340 nm of 0.016/min in the absence of inhibitor.

BRaf kinase = BRaf kinase (Homo sapiens, UniProt P15056); experiment: ADP-Glo kinase assay, BRaf; format: biochemical; conditions: averages from triplicate assays
Procedure: The ADP-Glo™ kinase assay (Promega, Madison, WI) was used to screen target compounds for their inhibition effects for BRaf, EGFR kinase. The kinase assay was carried out in a 96-well plate, in a volume of 25 μL HEPES (pH 7.3) solvent containing 1.6 μg/mL EGF, and 20 ng of EGFR kinase, or 50 ng BRaf kinase, and 10 μM ATP (Promega, Madison, WI). […] Reactions in each well were started immediately by adding ATP and kept going for half an hour under 30 °C in a constant temperature incubator (Bluepard, Shanghai, China). After the plate cooled for 5 min at room temperature, 25 μl of ADP-Glo reagent was added into each well to stop the reaction and consume the remaining […] within 40 min. At the end, 50 μl of kinase detection reagent was added into the well and incubated for 1 h to produce a luminescence signal.

HPAEpiC cell line = experiment: Selectivity index against HPAEpiC; format: cell-based; conditions: SI = CC50/IC50
GES-1 cell line = experiment: Selectivity index against GES-1; format: cell-based; conditions: SI = CC50/IC50
SK-MES-1 cells = experiment: MTT assay SK-MES-1; format: cell-based
A549 cells [1] = experiment: Cell cycle PI staining FACS, A549; format: cell-based, human; conditions: A549, 0.5, 1.0, 1.5 μM, 24 h
From the text: TS is a crucial enzyme in the DNA synthesis stage. When it is inhibited, first to show cell cycle arrest at G1/S phase. […] Flow cytometry show (Fig. 3), as the concentration of the compound increases, the cells in the G0/G1 phase increase, the cells in the S phase and the G2/M phase decrease. Eventually, the proliferation of cancer cells was inhibited by the G1/S phase arrest of the compound L14e.

A549 cells [2] = experiment: Transwell migration and wound healing, A549; format: cell-based, human; conditions: A549, 0.5, 1.0, 1.5 μM, 24 h
Procedure: Cell migration ability was measured using transwell chambers (8-μm pore size; Corning Costar, Cambridge, MA, USA). For the transwell assay, A549 and H460 cells suspended in serum-free RPMI-1640 medium containing different concentrations of L14e (0, 0.5, 1.0, and 1.5 μM) were seeded into the upper chamber. The lower chamber contained RPMI-1640 medium supplemented with 20% serum. After 24 h incubation, the filters were fixed in methanol and stained with 0.1% crystal violet. The upper faces of the filters were gently abraded, and the lower faces with cells migrated across the filters were imaged and counted under the microscope. For wound healing assays, cells were placed into 6-well plates and cultured until 100% confluence. An artificial scratch was created using a 200 μL pipette tip. Add serum-free RPMI-1640 medium containing different concentrations of drugs. At 24 h after culturing in serum-free medium, wound closure images were captured in the same field under magnification. Cell healing rates were calculated by the fraction of cell coverage across the line. These experiments were performed in triplicate and repeated three times.

FVB mice = experiment: Toxicity test in FVB mice; format: in vivo; conditions: 3 weeks
Procedure: Blood was collected from euthanized mice under isoflurane-induced deep anesthesia by cardiac puncture. After allowing blood coagulation at 4 °C, serum was collected by centrifugation at 3000 rpm for 10 min at 4 °C. Analysis of the level of ALT, AST, Glu and CRE in the serum was performed using a veterinary hematology analyzer (Fuji DRI-Chem 3500 s, Fujifilm, Tokyo, Japan) according to the manufacturer’s provided protocols. The histopathological changes in liver, lung, brain, and kidney were evaluated by using HE-stained section of the tissues (This part of the results is in the supplementary document).
Tissues were fixed in 10% neutral-buffered formalin for 24 h, embedded in paraffin, cut into 4-μm-thick sections, deparaffinized with xylene and processed with a graded ethanol series. Next, the sections were stained with HE and were observed using Eclipse Ts2 microscope (Nikon).

T1 sequence (P04818 whole entry): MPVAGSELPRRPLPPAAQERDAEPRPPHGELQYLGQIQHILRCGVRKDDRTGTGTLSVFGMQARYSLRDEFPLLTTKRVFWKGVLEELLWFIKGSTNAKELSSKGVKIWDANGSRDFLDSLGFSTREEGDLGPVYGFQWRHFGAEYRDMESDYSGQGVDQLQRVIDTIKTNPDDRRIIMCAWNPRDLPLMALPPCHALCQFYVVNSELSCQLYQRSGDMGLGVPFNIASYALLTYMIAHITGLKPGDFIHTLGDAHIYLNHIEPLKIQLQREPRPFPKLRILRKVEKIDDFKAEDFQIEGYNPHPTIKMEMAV
Chain of BRaf kinase (P15056 whole entry): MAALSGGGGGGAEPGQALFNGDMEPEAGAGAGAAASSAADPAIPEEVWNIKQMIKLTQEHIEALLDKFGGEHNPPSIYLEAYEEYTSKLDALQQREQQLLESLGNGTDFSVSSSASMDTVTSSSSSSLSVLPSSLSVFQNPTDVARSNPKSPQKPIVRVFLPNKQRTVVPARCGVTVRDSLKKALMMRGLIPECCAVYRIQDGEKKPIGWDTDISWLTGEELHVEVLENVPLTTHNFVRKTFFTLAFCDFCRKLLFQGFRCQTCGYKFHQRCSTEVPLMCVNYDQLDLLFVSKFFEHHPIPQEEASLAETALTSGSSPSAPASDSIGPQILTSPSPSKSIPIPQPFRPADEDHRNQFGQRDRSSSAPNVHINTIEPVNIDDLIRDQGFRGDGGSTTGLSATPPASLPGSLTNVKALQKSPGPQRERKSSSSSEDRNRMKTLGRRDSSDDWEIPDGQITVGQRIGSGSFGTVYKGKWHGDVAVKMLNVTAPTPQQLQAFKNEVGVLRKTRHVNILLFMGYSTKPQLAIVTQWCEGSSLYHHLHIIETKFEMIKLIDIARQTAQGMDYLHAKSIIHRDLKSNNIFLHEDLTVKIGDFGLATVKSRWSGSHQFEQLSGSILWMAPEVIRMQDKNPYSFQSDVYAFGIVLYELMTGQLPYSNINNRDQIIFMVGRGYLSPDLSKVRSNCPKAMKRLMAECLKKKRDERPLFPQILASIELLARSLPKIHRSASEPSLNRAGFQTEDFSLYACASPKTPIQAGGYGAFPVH

With `O=C(Nc1cccc(Cl)c1)Nc1ccccc1NS(=O)(=O)c1c[nH]c(=O)[nH]c1=O` [Compound L14e, N'-(3-chlorophenyl)-2-(2,4-dihydroxypyrimidine-5-sulfonamido)phenyl urea] as the molecule, how does the IC50 (human TS (hTS)) read?
Its IC50 is 1060 nM.

What about the IC50 (BRaf kinase) of the same molecule?
The IC50 was 1090 nM.

And the “SI (Selectivity index) HPAEpiC” value (HPAEpiC cell line)?
The value was 19.79.

What about the “SI (Selectivity index) GES-1” value (GES-1 cell line) of the same molecule?
The value was 8.58.

And the “inhibition of SK-MES-1 cells” value (SK-MES-1 cells)?
The value was “did not inhibit”.

And the “effect on cell cycle” value (A549 cells [1])?
The value was “arrest the cell cycle in the G1/S phase”.

And the “effect on cell migration” value (A549 cells [2])?
The value was “significantly inhibited the migration”.

And the “changes in body weight compared with control mice” value (FVB mice; FVB mice, 40, 80, 160 mg/kg)?
Its value is “minimal”.

And the “serum levels of AST, ALT, GLU and creatinine” value (FVB mice; FVB mice, 40, 80, 160 mg/kg)?
Its value is “within the reference ranges”.

What about the “toxicity to mice (overall)” value (FVB mice; FVB mice, 40, 80, 160 mg/kg) of the same molecule?
The value was “minimal toxicity”.

What about the “histopathological changes in liver, lung, brain, and kidney (HE staining)” value (FVB mice; mice) of the same molecule?
Its value is “no visible pathological changes”.
